Here are results for two molecules from patent US20180106782A1, “HIGH THROUGHPUT CARDIOTOXICITY SCREENING PLATFORM” (The Board of Trustees of the Leland Stanford Junior …, priority 2016, published 2018).

In the series the test system is μpatterned hiPSC-CMs. As to the kind of experiment: movement of LifeAct-labeled myofibrils in beating μpatterned hiPSC-CMs (cross-correlation, Ncorr). It counts as cell-based, human. To be noted: for aδ (temporal asynchronicity) / d (displacement) / VR (peak velocity of relaxation) / VC (peak velocity of contraction) / aθ (spatial asynchronicity): LifeAct, single cell. The procedure:
We fluorescently labeled actin with LifeAct in live hiPSC-CMs to image myofibrils and sarcomeres as described before. (Ribeiro 2015a) For this effect, we incubated hiPSC-CMs with the adenovirus rAV CAG-LifeAct-TagRFP (Ibidi; 1×10^5 IU/mL in cell-culture medium) overnight at 37° C. in a humid 5% CO2 atmosphere. We then washed cells once with PBS at 37° C. and added new medium. We observed actin labeled in sarcomeres after 2 days of adding the adenovirus to the culture medium. To induce contractile changes in hiPSC-CMs, we added drugs known to affect CM contractile machinery to the culture medium. We analyzed the mechanical output of cells after adding drugs. […] We exposed single cells to concentrations of 0.1 μM and then 1 μM of isoproterenol (Sigma, Saint Louis, Mo.) to test how the contractile activity of each cell varied after adding different amounts of isoproterenol to the medium. Omecamtiv mecarbil (Adooq Bioscience, Irvine, Calif.) was also added to the cell culture medium at 10 nM or 0.1 μM to detect different variations in the contractile response of hiPSC-CMs after adding one of these concentrations. We acquired videos of single beating hiPSC-CMs imaged with differential interference contrast microscopy at frame rates higher than 30 fps for a time between 4 and 10 s. We used MATLAB (R2014b version, Mathworks) to convert pixels of each frame to microns. Zeiss files (.czi) contained information on the pixel dimensions and were imported into MATLAB using the Bioformats package. ([…] 2010) We also confirmed the software calibration with calibration slides (Electron Microscopy Sciences). For each video of a beating single cell, we selected a region of interest (ROI) around the borders of the cell and analyzed average displacements within this ROI (FIG. 1B). For this purpose, we selected a baseline frame, within all the frames of the video, which represented the relaxed state of the cell and calculated average displacement within the ROI for the remaining frames relative to the baseline frame. As noted bellow, this procedure was automated. We then calculated displacements from microscopy videos with cross-correlation approaches: digital image correlation (DIC) and particle image velocimetry (PIV) approaches. […] Cross-correlation is done between sub-blocks of the image and the highest correlation indicates the maximum likelihood that blocks match. We tested the following cross-correlation algorithms: PIVIab, ImageJ PIV (Tseng 2012) and Ncorr. PIVIab and Ncorr were written in MATLAB, while ImageJ PIV is a plugin for ImageJ (NIH). Ncorr generally performs better, but uses more computational time. (Blaber 2015) We measured two parameters of asynchronicity of contractile movement within the ROI: spatial asynchronicity (aθ) of contractile movement and temporal asynchronicity (aδ) of contractile movement. Spatial synchronicity occurs when the different regions of the cell move along the same directions and temporal synchronicity occurs when all the regions of the cell move at the same time. To calculate aθ, we first computed the direction of movement (θ) for every movement vector of different regions i inside the ROI (FIG. 1B) at each frame as defined by The second approach performed better for analyzing sarcomere lengths in videos of LifeAct labeled beating cells. This approach was applied to different frames in a video to determine how the different properties measure with traction force microscopy or from cell movement related to sarcomere size, movement and orientation during the contractile cycle. Most of the tested approaches relied on successful skeletonization of each frame, which may not be perfect due to noise or inconsistent illumination. To quantitatively compare different skeletons from different frames in a video, we generated a master skeleton based on the skeletons generated from all frames. […]

Turning to `COC(=O)N1CCN(Cc2cccc(NC(=O)Nc3ccc(C)nc3)c2F)CC1` [omecamtiv mecarbil], the “acute changes in sarcomere organization and movement” value (0.1 μM omecamtiv mecarbil, acute, single cell (FIG. 6B)) was “oscillatory contractions of sarcomeres and overlap between sarcomeres”. For the same molecule, the “chronic effects on the organization of myofibrils” value (0.1 μM omecamtiv mecarbil, chronic, 2 minutes after adding (FIG. 6C)) is “myofibril damaging”. Further, the “acute values of dmax and br from myofibril movement” value (0.1 μM omecamtiv mecarbil, single cell (FIG. 6F)) is “slightly increased”. Moreover, the “acute VC and VR from myofibril movement” value (0.1 μM omecamtiv mecarbil, single cell (FIG. 6G)) is “no considerable acute variations”. Also, the “aδ (temporal asynchronicity)” value was 0.89 s (OM 0.1 μM (FIG. 6), row 'acute', no OM: 0.05) and 0.88 s (OM 0.1 μM (FIG. 6), row 'chronic', no OM: 0.05). Besides, the “d (displacement)” value by setting is: (OM 0.1 μM (FIG. 6), row 'acute', no OM: 1.03) 0.25 μm; (OM 0.1 μM (FIG. 6), row 'chronic', no OM: 1.03) 0.93 μm. Further, the “VR (peak velocity of relaxation)” value reads like this: (OM 0.1 μM (FIG. 6), row 'acute', no OM: 2.2) 0.51 μm/s; (OM 0.1 μM (FIG. 6), row 'chronic', no OM: 2.2) 1.63 μm/s. The “VC (peak velocity of contraction)” value (OM 0.1 μM (FIG. 6), row 'acute', no OM: 2.25) is given as 0.54 μm/s and the “VC (peak velocity of contraction)” value (OM 0.1 μM (FIG. 6), row 'chronic', no OM: 2.25) was determined as 2.2 μm/s. Further, the “aθ (spatial asynchronicity)” value is 40.9 ° (OM 0.1 μM (FIG. 6), row 'acute', no OM: 36.3) and 17.1 ° (OM 0.1 μM (FIG. 6), row 'chronic', no OM: 36.3).
On to `CC(C)NCC(O)c1ccc(O)c(O)c1` (stereo not drawn) [isoproterenol], for which the “aδ (temporal asynchronicity)” value by setting is: (ISO 0.1 (μM per FIG. 4), no ISO: 0.1) 0.31 s; (ISO 1 (μM per FIG. 4), no ISO: 0.1) 0.28 s. Besides, the “d (displacement)” value was determined as 1.43 μm (ISO 0.1 (μM per FIG. 4), no ISO: 1.22) and 0.71 μm (ISO 1 (μM per FIG. 4), no ISO: 1.22). Further, the “VR (peak velocity of relaxation)” value runs as follows: (ISO 0.1 (μM per FIG. 4), no ISO: 2.54) 3.45 μm/s; (ISO 1 (μM per FIG. 4), no ISO: 2.54) 2.05 μm/s. For the same molecule, the “VC (peak velocity of contraction)” value by setting is: (ISO 0.1 (μM per FIG. 4), no ISO: 2.63) 4.78 μm/s; (ISO 1 (μM per FIG. 4), no ISO: 2.63) 2.02 μm/s. The “aθ (spatial asynchronicity)” value was found to be 19.5 ° (ISO 0.1 (μM per FIG. 4), no ISO: 55.4) and 20.8 ° (ISO 1 (μM per FIG. 4), no ISO: 55.4).
